Holding throughout (type): cell-based, mouse
Assay [1] deals with COX-2 protein expression in LPS-induced RAW 264.7 cells. Kind of assay: Western blot, COX-2 protein expression. The conditions noted are these: 15 µM, LPS 1 µg/mL, p < .001. As to the method: (§1) The cells were collected and washed three times with ice-cold PBS. The cells were treated with a cell lysis buffer [50 mM Tris (pH 7.6), 150 mM NaCl, 5 mM EDTA (pH 8.0), 0.6% NP-40, 1 mM Na3VO4, 20 mM β-glycerophosphate, 1 mM phenylmethylsulfonyl fluoride, 2 mM p-nitrophenyl phosphate, and 1:25 Complete Mini Protease Inhibitor cocktail (Boehringer, Mannheim,Germany)] and kept on ice for 30 min. The cell lysates were centrifuged (12,000 g at 4 °C) for 5 min to obtain a cytosolic fraction. The protein concentration was determined by BCA protein assay kit (Beyotime, Haimen, China). Aliquots of the lysates were separated on 10% sodium dodecyl sulphate (SDS)-polyacrylamide gel electrophoresis (PAGE) and then electro blotted onto a polyvinylidene difluoride (PVDF) membrane. The blots were blocked with 5% (w/v) non-fat dry milk for 2 h at 37 °C, followed by incubation with specific primary antibody at 4 °C overnight. Blots were washed with Tween 20/Tris-buffered saline [TTBS, 20 mM Tris–HCl buffer, pH 7.6, containing 137 mM NaCl and 0.05% (vol/vol) Tween 20] and incubated with a peroxidase-conjugated secondary antibody for 1 h. Blots were again washed with TTBS and the immune active proteins were detected using ECL plus (Thermo, USA). […] Results are expressed as the relative ratio of the specific band compared with the internal reference.

Assay [2] has as its system phosphorylation of JNK in RAW 264.7 cells. Kind of assay: Western blot, LPS-induced phosphorylation of JNK. As to the method: RAW 264.7 cells (5 × 10^5 cells/well) plated onto 6-well plates were incubated for 24 h and treated with 7.5, 15.0 or 30.0 µM of compound 6p for 30 min and then stimulated with […] of LPS for 24 h. The cells were collected and washed three times with ice-cold PBS. The cells were treated with a cell lysis buffer [50 mM Tris (pH 7.6), 150 mM NaCl, 5 mM EDTA (pH 8.0), 0.6% NP-40, 1 mM Na3VO4, 20 mM β-glycerophosphate, 1 mM phenylmethylsulfonyl fluoride, 2 mM p-nitrophenyl phosphate, and 1:25 Complete Mini Protease Inhibitor cocktail (Boehringer, Mannheim,Germany)] and kept on ice for 30 min. The cell lysates were centrifuged (12,000 g at 4 °C) for 5 min to obtain a cytosolic fraction. The protein concentration was determined by BCA protein assay kit (Beyotime, Haimen, China). Aliquots of the lysates were separated on 10% sodium dodecyl sulphate (SDS)-polyacrylamide gel electrophoresis (PAGE) and then electro blotted onto a polyvinylidene difluoride (PVDF) membrane. The blots were blocked with 5% (w/v) non-fat dry milk for 2 h at 37 °C, followed by incubation with specific primary antibody at 4 °C overnight. […] Blots were again washed with TTBS and the immune active proteins were detected using ECL plus (Thermo, USA). […] Results are expressed as the relative ratio of the specific band compared with the internal reference.

Assay [3] deals with TNF-α production in LPS-stimulated RAW264.7 cells. Kind of assay: Cytokine production assay (ELISA), TNF-α. Here is the method: RAW264.7 cells were seeded at 3 × 10^5 cells/well in a 48-well microplate and incubated overnight.The cells were pre-treated with the different concentrations of the test compunds (3, 7.5, 10 or 30 µM) for 30 min before the stimulation with LPS (1 µg/mL). According to the protocol of the manufacturer, supernatants were harvested at the 24th hour for the assay of TNF-α or IL-6 with ELISA kits (BD Biosciences, San Diego, CA, USA). Briefly, 100 µL of biotinylated antibody reagent and the culture supernatants were added to anti-mouse TNF-α or IL-6 precoated 96-well plates, and the plates were incubated for 2 h at RT. The plate was washed with a washing buffer and subsequently incubated with 100 µL of the streptavidin-HRP solution for 1 h at RT. The plate was washed, and incubated with 100 µL of TMB substrate solution for 30 min at RT in the dark. The reaction was stopped by adding 50 µL of stop solution, and then the absorbance was measured at 450 nm by a plate reader. A standard curve was produced for each assay plate using serially diluted recombinant IL-6.
On the technique in general: An ELISA detects its analyte on a solid surface through an enzyme-linked reagent.

Assay [4] has as its system LPS-induced NO production in RAW264.7 macrophages. The assay is described as follows: Inhibition of LPS-induced NO production (Griess). As to the method: The RAW 264.7 mouse macrophage cell line was obtained from the China Cell Line Bank (Beijing, China). Cells were cultured in complete medium (DMEM supplemented with 10% heat-inactivated FBS, 3 mM glutamine and antibiotics (100 U/mL penicillin and 100 U/mL streptomycin)) at 37 °C in a humidified incubator containing 5% CO2 and 95% air. Cells were treated with various concentrations of synthesised compounds for 30 min followed by stimulation with LPS ([…]).
Nitrite, a stable product of nitric oxide, was used to assess NO production. To study the effects of the isolated compounds on NO production, RAW264.7 cells were plated at 1 × 10^5 cells/well in a 96-well microplate and incubated overnight. The cells were pre-treated with various concentrations of the test compounds (3, 7.5, 10, 15, 30 or 100 µM) and further co-cultured with 1 µg/mL LPS for 24 h. Un-pre-treated and un-stimulated RAW 264.7 cells were conducted as the blank control group. At different time points, the supernatant (50 µL) was assayed with NO assay kit. The culture supernatant (50 µL) was mixed with an equal volume of the Griess reagent (1% sulphanilamide, 0.1% N-[1-naphthy] ethylenediamine dihydrochloride) and NO production were determined at 540 nm with an ELISAplate reader.
A general note: Nitrite, measured by Griess reagent, commonly stands in for NO production.

Assay [5] relates to iNOS protein expression in LPS-induced RAW 264.7 cells. The assay is described as follows: Western blot, iNOS protein expression. Here is the method: as §1

The record followed here is publication PMC6853232, “Discovery and evaluation of novel synthetic 5-alkyl-4-oxo-4,5-dihydro-[1,2,4]triazolo[4,3-a]quinoxaline-1-carbox-amide derivatives as anti-inflammatory agents” (Journal of Enzyme Inhibition and Medicinal Chemistry, 2019).

With `COc1cc(Cn2c(=O)c3nnc(C(N)=O)n3c3ccccc32)cc(OC)c1OC` [6p, 5-(3,4,5-trimethoxybenzyl)-4-oxo-4,5-dihydro-[1,2, 4]triazolo[4,3-a]quinoxaline-1-carboxamide], the “inhibition of COX-2 protein expression” value in assay [1] is on record as 53.44%. In addition, in assay [2] (30 µM, p < .001), the “phosphorylation of JNK” value is recorded as “markedly diminished”. The “LPS-induced phosphorylation of JNK, concentration dependence” value in assay [2] (7.5, 15 and 30 µM) is listed as “concentration-dependent manner”. In addition, in assay [3] (3 µM, p < .001), the “production of TNF-α” value is recorded as “significantly inhibited”. Moreover, the “LPS-induced increase in TNF-α levels” value in assay [3] (LPS 1 µg/mL, 24 h, different concentrations) is reported as “inhibited in a concentration-dependent manner”. Besides, the “inhibition of NO production” value in assay [4] (3 µM, p < .001 vs LPS alone) was “significantly inhibit”. Further, the inhibition (commonly the share of the control response that was lost under treatment) at 10 µM in assay [4] (Mus musculus, RAW264.7, 10 µM, LPS 1 µg/mL, 24 h, read-out: NO inhibitory activity (% inhibition)) stood at 38.8%. Also, the “inhibition of iNOS protein expression” value in assay [5] (30 µM, LPS 1 µg/mL, p < .001) is 39.89%. Further, the “iNOS protein expression, dose dependence” value in assay [5] (7.5, 15 and 30 µM) was “dose-dependent manner”.
